Literature values in US7250518B2, “Nicotinamide acids, amides, and their mimetics active as inhibitors of PDE4 isozymes” (Pfizer Inc., priority 2001, dated 2007).
Read-outs that look alike come from different tables or passages of the source.

Key:
rheumatoid arthritis = settings: 35 patients, t.i.d., placebo-controlled
[1] = system: in vitro guinea-pig models of asthma; settings: read-out: IC50 in standard in vitro guinea-pig models of asthma
[2] = system: histamine- and antigen-induced bronchoconstriction, eosinophilia, AHR; settings: guinea-pig
[3] = system: antigen-induced lung eosinophilia, BAL eosinophilia, AHR; settings: guinea-pig
[4] = in vivo
[5] = system: high-affinity rolipram binding site (Sr)
PDE4 in U937 cells = settings: read-out: IC50 as PDE4 inhibitor in U937 cells
[6] = rat
[7] = rat; remark: listed apart in the source
[8] = 54 subjects, doses up to 400 mg
[9] = system: antigen-induced eosinophilia; settings: rat
epidermal basal cells = settings: primary culture
[10] = system: keratomed psoriatic epidermis; settings: over controls
psoriatic lesions = settings: two double-blind studies versus vehicle
[11] = COPD patients, 15 mg b.i.d., week 6
[12] = oral 5, 10, and 15 mg b.id., week 2
canine tracheal PDE4 = settings: at 100 nM
[13] = system: antigen-induced bronchoconstriction; settings: guinea-pig
[14] = system: TNF release and lymphocyte proliferation; settings: oral dose of 300 mg
guinea-pig lung PDE4 = settings: read-out: IC50 against guinea-pig lung PDE4
[15] = system: antigen-induced bronchospasm; settings: rat
[16] = system: PHA stimulated atopic dermatitis PBMC; settings: read-out: IC50, inhibition of PHA stimulated atopic dermatitis PBMC proliferation
[17] = system: PHA stimulated normal PBMC; settings: read-out: IC50, inhibition of PHA stimulated normal PBMC proliferation
[18] = system: croton oil-induced ear inflammation; settings: mouse
[19] = system: collagen II induced arthritis
[20] = system: human peripheral blood mononuclear cells (HPBM); settings: normal patients and subjects with atopic dermatitis
[21] = system: dextran sulfate induced colitis; settings: rat
[22] = system: lipopolysaccharide-induced bowel erythrocyte extravasation; settings: rats, i.p. 3× pretreatment
[23] = system: T-cell mediated hepatic failure
[24] = system: experimental allergic encephalomyelitis; settings: marmoset
[25] = system: chronic relapsing experimental allergic encephalomyelitis; settings: SJL mice
[26] = system: bronchoconstriction, BAL eosinophilia, AHR; settings: in vivo
rhinorrhea = settings: antigen-challenged pig
TNF-α and IL-6 levels = settings: 1 mg/kg/hr over 24 hours
[27] = system: PDE4 derived from tumor cells; settings: read-out: IC50 against a PDE4 derived from tumor cells
inflammatory parameters = settings: topical, bilaterally over eight days, twenty patients
[28] = system: late reactions to inhaled allergen; settings: 9.5 days oral, 15 and 30 mg, bronchial asthma patients
[29] = system: lipopolysaccharide-induced mesenteric blood flow fall; settings: inhibiting lipopolysaccharide-induced mesenteric blood flow fall
[30] = system: bone mineral density of femurs; settings: serial oral administrations
TNF production = settings: read-out: IC50 as an inhibitor of TNF production
[31] = system: seratonin-induced bronchoconstriction; settings: dog

## COc1ccc(C(=O)Nc2c(Cl)cncc2Cl)cc1OC1CCCC1 [RP73401]
Rheumatoid arthritis
  Clinical effect in rheumatoid arthritis: positive trend towards clinical improvement

## O=C(Nc1c(Cl)cncc1Cl)c1ccc(OC(F)F)c(OCC2CC2)c1 [Roflumilast]
[1]
  IC50: 3.5 nM

## O=c1c2[nH]cnc2c2cccnc2n1-c1ccccc1 [KF17625]
[2]
  Inhibition of histamine- and antigen-induced bronchoconstriction, PAF- and antigen-induced eosinophilia, AHR, bronchospasm: activity

## COc1ccc(C(=O)Nc2c(Cl)cncc2Cl)cc1OC1CCCC1 [RP-73,401]
[3]
  Inhibition of antigen-induced lung and BAL eosinophilia, EPO, PAF- and ozone-induced AHR, IL-5 induced pleural eosinophila: active
[4]
  Emesis, nausea and vomiting: elicit emesis
[5]
  Affinity at the Sr: high affinity

## Cc1cc2c3c(c1)C(c1ccccc1)=N[C@@H](NC(=O)c1ccncc1)C(=O)N3CC2 [CI-1018]
PDE4 in U937 cells
  IC50: 1100 nM
[6]
  Oral bioavailability: 57%
[7]
  ED50, oral potency: 5 mg/kg
[8]
  Adverse events: no adverse events
[9]
  Inhibition of antigen-induced eosinophilia: active

## COc1ccc(CC2CNC(=O)N2)cc1OC1CCCC1 (stereo not shown) [Ro 20-1724]
Epidermal basal cells
  Increase in cAMP concentrations: three-fold
[10]
  Increase in cAMP concentration: 1395%
Psoriatic lesions
  Effect on psoriatic lesions: improve psoriatic lesions without adverse systemic or cutaneous effects

## COc1ccc([C@]2(C#N)CC[C@@H](C(=O)O)CC2)cc1OC1CCCC1 [SB-207,499]
[11]
  Improvement in trough FEV1: 11%
  Maximum mean difference in trough FEV1 compared with placebo: 160 mL
[12]
  Change in trough FEV1 from placebo: significant increases
[5]
  Affinity at the Sr: comparatively low affinity

## COc1ccc(C2CNC(=O)NC2)cc1O[C@H]1C[C@@H]2CC[C@H]1C2 [CP-80,633]
[4]
  Emesis, nausea and vomiting: elicit emesis
[5]
  Affinity at the Sr: high affinity

## COc1ccc(C(=O)Cc2c(Cl)c[n+]([O-])cc2Cl)c2c1OCCCCO2 [Formula (0.0.49)]
Canine tracheal PDE4
  Inhibition of canine tracheal PDE4: almost complete inhibition

## CCNc1ncn(Cc2ccc(OC)c(OC3CCCC3)c2)c2nc(C(C)C)nc1-2 [Example V-11294A]
[13]
  Inhibition of antigen-induced bronchoconstriction: active
[14]
  Effect on LPS-stimulated ex vivo TNF release and PHA induced lymphocyte proliferation: effective in reducing TNF levels and lymphocyte proliferation

## CCOc1cc2cc(CO)c(CO)c(-c3ccnc(-n4nc(-c5cccnc5)c5ccccc5c4=O)c3)c2cc1OCC [Example T-2585]
guinea-pig lung PDE4
  IC50: 0.13 nM

## COc1ccc(CNc2c(C)noc2C)cc1OC1CCCC1 [RPR-132294]
[15]
  Inhibition of antigen-induced bronchospasm: activity

## COc1ccc(C2CNC(=O)C2)cc1OC1CCCC1 (stereo not shown) [rolipram]
[16]
  IC50: 280 nM
[17]
  IC50: 2600 nM
[18]
  Topical dose inhibiting croton oil-induced ear inflammation: ≥ 0.03 mg per ear
[19]; 2 mg/kg twice daily for five days before onset of arthritis
  Effect on appearance of arthritic symptoms: significantly delayed the appearance of arthritic symptoms
[19]; 3 mg/kg twice daily when arthritis was apparent
  Effect on development of the disease: progression of severity was halted
[20]
  Inhibition of the proliferation of HPBM: concentration-related inhibition
[21]
  Effect in dextran sulfate induced colitis: beneficial effects comparable to prednisolone
[22]
  Effect on lipopolysaccharide-induced bowel erythrocyte extravasation: reduces
[23]; 0.1 to 10 mg/kg i.p.
  IL-10 levels: significantly elevates
  Plasma activities of liver enzymes ALT, AST, and SDH: dose-dependently inhibited
[23]; 0.1 to 10 mg/kg i.p. 30 minutes before concanavalin A or staphylococcal enterotoxin B
  Plasma TNF-α and INF-γ concentrations: significantly reduce
[24]
  Effect on clinical signs: suppress the appearance of clinical signs
[25]
  Effect on clinical signs and pathological changes: ameliorates clinical signs and pathological changes

## CCOc1cc2cc(CO)c(CO)c(-c3ccn(CCOC)c(=O)c3)c2cc1OCC [Example T-440]
[26]
  Inhibition of early and late phase bronchoconstriction, BAL eosinophilia, ozone-induced AHR and airway epithelial injury: activity

## CCCn1c(=O)c2c(C)nc(CC)n2c2nc(OC)ccc21 [Example D-22888]
rhinorrhea
  Effect on rhinorrhea: inhibit rhinorrhea

## CCCn1c(=O)c2[nH]cnc2n(-c2ccc(Cl)cc2)c1=O [LAS31025]
[21]
  Effect in dextran sulfate induced colitis: beneficial effects comparable to prednisolone

## CC(=O)CCCCn1c(=O)c2c(ncn2C)n(C)c1=O [pentoxifylline]
TNF-α and IL-6 levels
  IL-6 levels: significantly increased
  TNF-α levels: significantly lowered
[22]
  Effect on lipopolysaccharide-induced bowel erythrocyte extravasation: reduces

## Clc1nc2c(N3CCCC3)nc(N3CCNCC3)nc2nc1NCc1ccccc1 [Formula (0.0.55)]
[27]
  IC50: 16 nM
Tumor cells
  Concentrations inhibiting the growth of tumor cells: micromolar concentrations

## COc1ccc(C2CNC(=O)NC2)cc1O[C@H]1C[C@@H]2CC[C@H]1C2 [atizoram]
Inflammatory parameters
  Effect on inflammatory parameters: effectively inhibit all of the inflammatory parameters tested

## Nc1nc2c([nH]1)c(=O)n(CC1CC1)c(=O)n2CC1CC1 [BRL-61,063]
[4]
  Emesis, nausea and vomiting: adverse events of nausea and vomiting

## COc1ccc(-c2nc3cnccc3o2)c2c1OC1(CCCC1)C2 [Formula (0.0.48)]
PDE4; read-out: IC50 as PDE4 inhibitor
  IC50: 2.5 nM

## O=c1c2cccnc2n(-c2cccc([N+](=O)[O-])c2)c(=O)n1Cc1ccncc1 [RS-23,544]
[4]
  Emesis, nausea and vomiting: elicit emesis
[5]
  Affinity at the Sr: high affinity

## COc1ccc([C@H](Cc2ccncc2)c2ccccc2)cc1OC1CCCC1 [CDP840]
[28]
  Effect on late reactions to inhaled allergen: suppression of late reactions to inhaled allergen
[4]
  Emesis, nausea and vomiting: without any adverse events of nausea or headache
[5]
  Affinity at the Sr: comparatively low affinity

## CCCCn1c(=O)c2c(ncn2CC(C)=O)n(CCCC)c1=O [debufylline]
[22]
  Effect on lipopolysaccharide-induced bowel erythrocyte extravasation: reduces

## CCCCn1c(=O)c2c(ncn2CC(C)=O)n(CCCC)c1=O [denbufylline]
[29]
  Potency relative to pentoxifylline: 100 fold
[20]
  Inhibition of the proliferation of HPBM: concentration-related inhibition
[30]
  Effect on bone mineral density of femurs: inhibit the decrease in the bone mineral density

## O=c1c2c(ncn2Cc2cccnc2)c2cccnc2n1-c1ccccc1 [KF19514]
[2]
  Inhibition of histamine- and antigen-induced bronchoconstriction, PAF- and antigen-induced eosinophilia, AHR, bronchospasm: activity

## O=C(Nc1c(Cl)cncc1Cl)C(=O)c1cn(Cc2ccc(F)cc2)c2ccc(O)cc12 [AWD-12,281]
Allergic rhinitis
  Activity in a rat model of allergic rhinitis: active

## CCCn1c(=O)c2[nH]cnc2n(-c2ccc(Cl)cc2)c1=O [LAS-31025]
[13]
  Inhibition of antigen-induced bronchoconstriction: active

## COc1ccc(C(CC(N)=O)N2C(=O)c3ccccc3C2=O)cc1OC1CCCC1 (stereo not shown) [Formula (0.0.32)]
PDE4; read-out: IC50 as an inhibitor of PDE4
  IC50: 0.042 nM
TNF production
  IC50: 130 nM

## COc1ccc(/C(C)=N/OC(N)=O)cc1OC1CCCC1 [WAY-PDA-641]
[31]
  Inhibition of seratonin-induced bronchoconstriction: active
